{"source": "patent US12384753B2", "about": "“17-beta-hydroxysteroid dehydrogenase type 13 inhibitors and methods of use thereof” (Enanta Pharmaceuticals, Inc., priority 2021, dated 2025)"}
{"target": "Recombinant human HSD17B13 (Homo sapiens (Human), UniProt Q7Z5P4)", "sequence (Q7Z5P4 20-300)": "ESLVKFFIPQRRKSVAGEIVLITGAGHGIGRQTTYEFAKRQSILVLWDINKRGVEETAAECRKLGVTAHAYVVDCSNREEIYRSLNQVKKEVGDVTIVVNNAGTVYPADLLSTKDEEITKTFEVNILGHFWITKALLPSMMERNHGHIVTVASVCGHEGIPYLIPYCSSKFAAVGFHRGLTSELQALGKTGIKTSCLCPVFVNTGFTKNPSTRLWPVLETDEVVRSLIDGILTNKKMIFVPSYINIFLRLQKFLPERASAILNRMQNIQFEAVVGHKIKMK", "assay": "HSD17B13 rapid-fire mass spectrometry assay (RF/MS assay)", "assay_type": "biochemical", "settings": "inhibition of HSD17B13; LTB4 10 μM, NAD+ 0.5 mM, RT 3 h; IC50 ranges A-E", "outline": "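Sf9-expressed human HSD17B13 (80 nM) with 10 μM LTB4 and 0.5 mM NAD+, incubated with compound (0–100 μM) for 3 h at RT in Tris pH 7.5/BSA/Tween-20. After formic acid quench, LTB4 conversion to 12-oxo-LTB4 measured by RapidFire MS/MS. IC50 from normalised residual activity, duplicates.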", "units": {"IC50": "nM"}}
{"smiles": "COc1cc(C(=O)O)c(F)cc1NS(=O)(=O)c1csc(-c2ccc(-c3ccc([C@H]4CC[C@@H](C(C)(C)C)CC4)cc3C(F)(F)F)cc2C(F)(F)F)n1", "note": "[Example 783]", "IC50": "100 to 500"}
{"smiles": "COc1cc(C(=O)O)c(F)cc1NS(=O)(=O)c1csc(-c2ccc(-c3ccc(C(F)(F)C(F)(F)F)cc3)cc2C(F)(F)F)n1", "note": "[Example 784]", "IC50": "< 100"}
{"smiles": "CCC1CC=C(c2ccc(-c3nc(S(=O)(=O)Nc4cc(F)c(C(=O)O)cc4OC)cs3)c(C(F)(F)F)c2)CC1", "note": "(stereo not drawn) [Example 785]", "IC50": "< 100"}
{"smiles": "CCC1CCC(c2ccc(-c3nc(S(=O)(=O)Nc4cc(F)c(C(=O)O)cc4OC)cs3)c(C(F)(F)F)c2)CC1", "note": "(stereo not drawn) [Example 786]", "IC50": "100 to 500"}
{"smiles": "CC[C@H]1CC[C@H](c2ccc(-c3nc(S(=O)(=O)Nc4cc(F)c(C(=O)O)cc4OC)cs3)c(C(F)(F)F)c2)CC1", "note": "[Example 787]", "IC50": "< 100"}
{"smiles": "COc1cc(C(=O)O)c(F)cc1NS(=O)(=O)c1csc(-c2ccc(-c3ccc(-c4ccc(C(F)(F)C(F)(F)F)cc4)cc3C(F)(F)F)cc2C(F)(F)F)n1", "note": "[Example 788]", "IC50": "100 to 500"}
{"smiles": "COc1cc(C(=O)O)c(F)cc1NS(=O)(=O)c1csc(-c2ccc(-c3cc(F)c(C(F)(F)F)c(F)c3)c(OC(C)C)c2F)n1", "note": "[Example 790]", "IC50": "< 100"}
{"smiles": "COc1cc(C(=O)O)c(F)cc1NS(=O)(=O)c1csc(-c2ccc(-c3ccc(C(F)(C(F)(F)F)C(F)(F)F)cc3)c(OC(C)C)c2F)n1", "note": "[Example 793]", "IC50": "< 100"}
{"smiles": "COc1cc(C(=O)O)c(F)cc1NS(=O)(=O)c1csc(-c2ccc(-c3ccc(C4(C(F)(F)F)CC4)cc3)cc2C(F)(F)F)n1", "note": "[Example 794]", "IC50": "< 100"}
{"smiles": "COc1cc(C(=O)O)c(F)cc1NS(=O)(=O)c1csc(-c2ccc(-c3ccc(C(F)(C(F)(F)F)C(F)(F)F)cc3)cc2C(F)(F)F)n1", "note": "[Example 795]", "IC50": "< 100"}
{"smiles": "COc1cc(C(=O)O)c(F)cc1NS(=O)(=O)c1csc(-c2ccc(-c3ccc(-c4ccc(C5(C(F)(F)F)CC5)cc4)cc3C(F)(F)F)cc2C(F)(F)F)n1", "note": "[Example 796]", "IC50": "100 to 500"}
{"smiles": "COc1cc(C(=O)O)c(F)cc1NS(=O)(=O)c1csc(-c2ccc(-c3ccc(-c4ccc(C(F)(C(F)(F)F)C(F)(F)F)cc4)cc3C(F)(F)F)cc2C(F)(F)F)n1", "note": "[Example 797]", "IC50": "100 to 500"}
{"smiles": "COc1cc(C(=O)O)c(F)cc1NS(=O)(=O)c1ccc2sc(-c3ccc([C@H]4CC[C@H](C(C)C)CC4)cc3C(F)(F)F)nc2c1", "note": "[Example 798]", "IC50": "100 to 500"}
{"smiles": "COc1cc(C(=O)O)c(F)cc1NS(=O)(=O)c1csc(-c2ccc(C3=CCC(C(C)C)CC3)c(OC)c2F)n1", "note": "(stereo not drawn) [Example 799]", "IC50": "< 100"}
{"smiles": "COc1cc(C(=O)O)c(F)cc1NS(=O)(=O)c1csc(C2=CCC(C(C)C)CC2)n1", "note": "(stereo not drawn) [Example 800]", "IC50": "500 to 1000"}
{"smiles": "COc1cc(C(=O)O)c(F)cc1NS(=O)(=O)c1csc(-c2ccc([C@H]3CC[C@@H](C(C)C)CC3)c(OC)c2F)n1", "note": "[Example 802]", "IC50": "< 100"}
{"smiles": "COc1cc(C(=O)O)c(F)cc1NS(=O)(=O)c1csc(-c2ccc([C@H]3CC[C@H](C(C)C)CC3)c(OC)c2F)n1", "note": "[Example 803]", "IC50": "< 100"}
{"smiles": "COc1cc(C(=O)O)c(F)cc1NS(=O)(=O)c1csc(-c2ccc(-c3ccc(-c4ccc(C5=CCC(C(C)(C)C)CC5)cc4C(F)(F)F)cc3C(F)(F)F)cc2C(F)(F)F)n1", "note": "(stereo not drawn) [Example 804]", "IC50": "1000 to 100000"}
{"smiles": "COc1cc(C(=O)O)c(F)cc1NS(=O)(=O)c1csc(-c2ccc([C@H]3CC[C@@H](C(C)C)CC3)c(F)c2C)n1", "note": "[Example 805]", "IC50": "< 100"}
{"smiles": "COc1cc(C(=O)O)c(F)cc1NS(=O)(=O)c1csc(-c2ccc([C@H]3CC[C@H](C(C)C)CC3)c(F)c2C)n1", "note": "[Example 806]", "IC50": "< 100"}
{"smiles": "COc1cc(C(=O)O)c(F)cc1NS(=O)(=O)c1csc(-c2ccc([C@H]3CC[C@@H](C(C)C)CC3)c(C)c2F)n1", "note": "[Example 807]", "IC50": "< 100"}
{"smiles": "COc1cc(C(=O)O)c(F)cc1NS(=O)(=O)c1csc(-c2ccc([C@H]3CC[C@H](C(C)C)CC3)c(C)c2F)n1", "note": "[Example 808]", "IC50": "< 100"}
{"smiles": "CCOc1c(C2=CCC(C(C)C)CC2)ccc(-c2nc(S(=O)(=O)Nc3cc(F)c(C(=O)O)cc3OC)cs2)c1F", "note": "(stereo not drawn) [Example 809]", "IC50": "< 100"}
{"smiles": "COc1cc(C(=O)O)c(F)cc1NS(=O)(=O)c1csc(-c2ccc(C3=CCC(C(F)(F)F)CC3)c(OC(C)C)c2F)n1", "note": "(stereo not drawn) [Example 810]", "IC50": "< 100"}
{"smiles": "COc1cc(C(=O)O)c(F)cc1NS(=O)(=O)c1csc(-c2ccc(C3CCC(C(F)(F)F)CC3)c(OC(C)C)c2F)n1", "note": "(stereo not drawn) [Example 811]", "IC50": "100 to 500"}
{"smiles": "COc1cc(C(=O)O)c(F)cc1NS(=O)(=O)c1csc(-c2ccc(C3CCC(C(F)(F)F)CC3)c(OC(C)C)c2F)n1", "note": "(stereo not drawn) [Example 812]", "IC50": "< 100"}
{"smiles": "COc1cc(C(=O)O)c(F)cc1NS(=O)(=O)c1csc(-c2ccc(C3=CCC(C(F)(F)F)CC3)c(C)c2F)n1", "note": "(stereo not drawn) [Example 813]", "IC50": "< 100"}
{"smiles": "CCOc1c(F)c(-c2nc(S(=O)(=O)Nc3cc(F)c(C(=O)O)cc3OC)cs2)ccc1[C@H]1CC[C@@H](C(F)(F)F)CC1", "note": "[Example 814]", "IC50": "< 100"}
{"smiles": "CCOc1c(F)c(-c2nc(S(=O)(=O)Nc3cc(F)c(C(=O)O)cc3OC)cs2)ccc1[C@H]1CC[C@H](C(F)(F)F)CC1", "note": "[Example 815]", "IC50": "100 to 500"}
{"smiles": "CCOc1c(C2=CCC(C(F)(F)F)CC2)ccc(-c2nc(S(=O)(=O)Nc3cc(F)c(C(=O)O)cc3OC)cs2)c1F", "note": "(stereo not drawn) [Example 816]", "IC50": "< 100"}
